Test results reported in patent US9452980B2, “Substituted benzamides” (Hoffmann-La Roche Inc., priority 2009, dated 2016).
Where a name gives a salt, the structure may show the parent alone. Read-outs that look alike come from different tables or passages of the source.

Columns and labels:
mouse TAAR1 = mouse TAAR1 (Mus musculus (Mouse), UniProt Q923Y8); assay: Radioligand binding assay on mouse TAAR1; details: read-out: Ki (μM) mouse
Outline: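 Displacement of the tritiated oxazol-2-ylamine radioligand was measured by filtration and scintillation counting after 1 h incubation at 4 °C. Test concentrations ran 10 pM–10 μM in duplicate, with 10 μM cold ligand giving nonspecific binding. The receptor source was membranes of a stable mouse TAAR1 HEK293 line.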

rat TAAR1 = rat TAAR1 (Rattus norvegicus (Rat), UniProt Q923Y9); assay: Radioligand binding assay on rat TAAR1; details: read-out: Ki (μM) rat
Chain of rat TAAR1 (Q923Y9 whole entry): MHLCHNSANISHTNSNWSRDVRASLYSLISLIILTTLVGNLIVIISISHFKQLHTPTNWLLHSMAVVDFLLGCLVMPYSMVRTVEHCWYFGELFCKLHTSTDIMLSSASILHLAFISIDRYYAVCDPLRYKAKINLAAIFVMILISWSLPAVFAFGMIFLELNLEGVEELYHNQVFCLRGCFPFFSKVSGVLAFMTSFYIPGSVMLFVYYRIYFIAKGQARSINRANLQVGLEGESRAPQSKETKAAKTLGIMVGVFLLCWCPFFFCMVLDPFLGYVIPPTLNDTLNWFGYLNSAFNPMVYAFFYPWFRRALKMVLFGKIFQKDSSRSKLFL
Outline: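 Membranes from HEK293 cells stably expressing rat TAAR1, with Kd checked per batch by saturation. Competition with ³H-(S)-4-[(ethyl-phenyl-amino)-methyl]-4,5-dihydro-oxazol-2-ylamine, compounds 10 pM–10 μM in duplicate, 1 hr at 4 °C. Filtration then scintillation counting; nonspecific binding defined with 10 μM unlabeled ligand.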

[1] = rat TAAR1, HEK-293 membranes, second value of cell mouse/rat
[2] = mouse TAAR1, HEK-293 membranes, first value of cell mouse/rat

Chain of mouse TAAR1 (Q923Y8 whole entry): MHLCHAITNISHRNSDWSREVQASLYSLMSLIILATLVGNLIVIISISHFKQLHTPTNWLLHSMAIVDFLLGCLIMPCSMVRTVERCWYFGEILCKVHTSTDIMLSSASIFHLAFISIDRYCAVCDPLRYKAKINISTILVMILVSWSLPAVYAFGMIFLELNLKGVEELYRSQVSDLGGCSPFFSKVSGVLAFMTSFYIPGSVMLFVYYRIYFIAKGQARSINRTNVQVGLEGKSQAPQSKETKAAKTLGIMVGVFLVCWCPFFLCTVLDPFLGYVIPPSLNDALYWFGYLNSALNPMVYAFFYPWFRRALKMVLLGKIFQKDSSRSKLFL

| Ki (mouse TAAR1; [2]) | SMILES | Ki (mouse TAAR1) | Ki (rat TAAR1; [1]) | Ki (rat TAAR1) | other results |
| --- | --- | --- | --- | --- | --- |
|  | O=C(Nc1ccc([C@@H]2CCCNC2)cc1)c1cnc(Cl)cn1 [Example 238, 5-Chloro-pyrazine-2-carboxylic acid ((S)-4-piperidin-3-yl-phenyl)-amide hydrochloride] | 1.12 µM | 0.0056 µM |  |  |
|  | O=C(Nc1ccc([C@H]2CCCNC2)cc1)c1cnc(Cl)cn1 [Example 239, 5-Chloro-pyrazine-2-carboxylic acid ((R)-4-piperidin-3-yl-phenyl)-amide hydrochloride] | 0.0396 µM | 0.0085 µM |  |  |
| 0.0146 µM | O=C(Nc1ccc([C@@H]2CCCNC2)cc1)OCc1ccc(Cl)cc1 [Example 240, (S)-4-chlorobenzyl 4-(piperidin-3-yl)phenylcarbamate hydrochloride] |  | 0.0009 µM |  |  |
|  | O=C(Nc1ccc([C@@H]2CCCNC2)cc1)c1ccc(C(F)(F)F)nc1 [Example 242, (S)—N-(4-(Piperidin-3-yl)phenyl)-6-(trifluoromethyl)nicotinamide hydrochloride] | 0.037 µM |  | 0.0089 µM |  |
| 2.12 µM | Cc1ccc(C(=O)Nc2ccc([C@@H]3CCCNC3)cc2)cn1 [Example 243, (S)-6-Methyl-N-(4-(piperidin-3-yl)phenyl)nicotinamide hydrochloride] |  | 0.0062 µM |  |  |
|  | CSc1ccc(C(=O)Nc2ccc([C@@H]3CCCNC3)cc2)cn1 [Example 244, (S)-6-(Methylthio)-N-(4-(piperidin-3-yl)phenyl)nicotinamide hydrochloride] | 0.268 µM | 0.0049 µM |  |  |
| 0.0151 µM | CCSc1cccc(C(=O)Nc2ccc([C@@H]3CCCNC3)cc2)c1 [Example 246, (S)-3-(Ethylthio)-N-(4-(piperidin-3-yl)phenyl)benzamide] |  | 0.0012 µM |  |  |
|  | O=C(Nc1ccc([C@@H]2CCCNC2)cc1)c1cnc(C(F)(F)F)cn1 [Example 248, (S)—N-(4-(Piperidin-3-yl)phenyl)-5-(trifluoromethyl)pyrazine-2-carboxamide hydrochloride] | 0.188 µM | 0.0143 µM |  |  |
| 0.288 µM | O=C(Nc1ccc([C@@H]2CCCNC2)cc1)c1cnc(OCC(F)(F)F)cn1 [Example 250, (S)—N-(4-(Piperidin-3-yl)phenyl)-5-(2,2,2-trifluoroethoxy)pyrazine-2-carboxamide hydrochloride] |  | 0.0056 µM |  |  |
| 0.0783 µM | O=C(Nc1ccc([C@@H]2CCCNC2)cc1)c1ccc(Br)nc1 [Example 252, (S)-6-Bromo-N-(4-(piperidin-3-yl)phenyl)nicotinamide 2,2,2-trifluoroacetate] |  | 0.0044 µM |  |  |
|  | Cc1cccc(C(=O)Nc2ccc([C@@H]3CCCNC3)cc2)c1 [Example 253, (S)-3-Methyl-N-(4-(piperidin-3-yl)phenyl)benzamide] | 0.36 µM | 0.0035 µM |  |  |
| 1.17 µM | CCOc1ccc(C(=O)Nc2ccc([C@@H]3CCCNC3)cc2)cn1 [Example 256, (S)-6-Ethoxy-N-(4-(piperidin-3-yl)phenyl)nicotinamide] |  | 0.012 µM |  |  |
| 0.786 µM | CSc1cnc(C(=O)Nc2ccc([C@@H]3CCCNC3)cc2)cn1 [Example 257, (S)-5-(Methylthio)-N-(4-(piperidin-3-yl)phenyl)pyrazine-2-carboxamide] |  | 0.004 µM |  |  |
|  | O=C(Nc1ccc([C@@H]2CCCNC2)cc1)OC1Cc2ccccc2C1 [Example 258, (S)-2,3-Dihydro-1H-inden-2-yl 4-(piperidin-3-yl)phenylcarbamate 2,2,2-trifluoroacetate] | 0.0225 µM | 0.0062 µM |  |  |
|  | Cc1ccc(C(=O)Nc2ccc([C@H]3CCCNC3)cc2)cc1C [Example 260, (R)-3,4-Dimethyl-N-(4-(piperidin-3-yl)phenyl)benzamide hydrochloride] | 0.016 µM | 0.0012 µM |  |  |
|  | O=C(Nc1ccc([C@@H]2CNCCO2)cc1)c1cccc(Cl)c1 [Example 262, (R)-3-Chloro-N-(4-(morpholin-2-yl)phenyl)benzamide hydrochloride] | 0.0052 µM |  | 0.0013 µM |  |

| Ki (mouse TAAR1; [2]) | SMILES | Ki (mouse TAAR1) | Ki (rat TAAR1; [1]) | Ki (rat TAAR1) | other results |
| --- | --- | --- | --- | --- | --- |
|  | O=C(Nc1ccc([C@H]2CNCCO2)cc1)c1cccc(Cl)c1 [Example 263, (S)-3-Chloro-N-(4-(morpholin-2-yl)phenyl)benzamide hydrochloride] | 0.0152 µM |  | 0.0011 µM |  |
| 0.297 µM | Cc1ccc(C(=O)Nc2ccc([C@H]3CCCNC3)cc2)cn1 [Example 264, (R)-6-Methyl-N-(4-(piperidin-3-yl)phenyl)nicotinamide hydrochloride] |  | 0.0143 µM |  |  |
|  | O=C(Nc1ccc([C@H]2CCCNC2)cc1)c1ccc(C(F)(F)F)nc1 [Example 265, (R)—N-(4-(Piperidin-3-yl)phenyl)-6-(trifluoromethyl)nicotinamide hydrochloride] | 0.0209 µM |  | 0.0059 µM |  |
|  | CSc1ccc(C(=O)Nc2ccc([C@@H]3CNCCO3)cc2)cc1 [Example 266, (R)-4-(Methylthio)-N-(4-(morpholin-2-yl)phenyl)benzamide hydrochloride] |  |  |  | Ki (mouse TAAR1; mouse TAAR1, HEK-293 membranes, first value of cell mouse/rat, hydrochloride): 0.0163 µM; Ki (rat TAAR1; hydrochloride): 0.0012 µM |
|  | O=C(Nc1ccc([C@@H]2CNCCO2)cc1)c1ccc(OCC(F)(F)F)nc1 [Example 268, (R)—N-(4-(Morpholin-2-yl)phenyl)-6-(2,2,2-trifluoroethoxy)nicotinamide hydrochloride] | 0.002 µM |  | 0.0024 µM |  |
|  | O=C(Nc1ccc([C@H]2CNCCO2)cc1)c1ccc(OCC(F)(F)F)nc1 [Example 269, (S)—N-(4-(Morpholin-2-yl)phenyl)-6-(2,2,2-trifluoroethoxy)nicotinamide hydrochloride] | 0.0099 µM |  | 0.003 µM |  |
|  | O=C(Nc1ccc([C@@H]2CNCCO2)cc1)c1cc(Cl)nc(Cl)c1 [Example 270, (R)-2,6-Dichloro-N-(4-(morpholin-2-yl)phenyl)isonicotinamide hydrochloride] | 0.0049 µM |  | 0.0045 µM |  |
|  | O=C(Nc1ccc([C@H]2CNCCO2)cc1)c1cc(Cl)nc(Cl)c1 [Example 271, (S)-2,6-Dichloro-N-(4-(morpholin-2-yl)phenyl)isonicotinamide hydrochloride] | 0.0067 µM |  | 0.004 µM |  |
| 2.51 µM | CCc1cnc(C(=O)Nc2ccc([C@@H]3CCCNC3)cc2)cn1 [Example 274, (S)-5-Ethyl-N-(4-(piperidin-3-yl)phenyl)pyrazine-2-carboxamide hydrochloride] |  | 0.0174 µM |  |  |
|  | CCCc1cnc(C(=O)Nc2ccc([C@@H]3CCCNC3)cc2)cn1 [Example 278, (S)—N-(4-(Piperidin-3-yl)phenyl)-5-propylpyrazine-2-carboxamide hydrochloride] | 0.829 µM | 0.0118 µM |  |  |
| 0.0128 µM | O=C(Nc1ccc([C@@H]2CCCNC2)cc1)c1cc(Cl)nc(Cl)c1 [Example 281, (S)-2,6-Dichloro-N-(4-(piperidin-3-yl)phenyl)isonicotinamide hydrochloride] |  | 0.0014 µM |  |  |
|  | Cc1cc(C(=O)Nc2ccc([C@@H]3CCCNC3)cc2)cc(Cl)n1 [Example 282, (S)-2-Chloro-6-methyl-N-(4-(piperidin-3-yl)phenyl)isonicotinamide] | 0.243 µM | 0.0048 µM |  |  |
|  | O=C(Nc1ccc([C@H]2CNCCO2)cc1)c1ccc(C(F)(F)F)nc1 [Example 284, (S)—N-(4-(Morpholin-2-yl)phenyl)-6-(trifluoromethyl)nicotinamide hydrochloride] | 0.0128 µM |  | 0.005 µM |  |
|  | Cc1cc(C(=O)Nc2ccc([C@@H]3CNCCO3)cc2)cc(Cl)n1 [Example 285, (R)-2-Chloro-6-methyl-N-(4-(morpholin-2-yl)phenyl)isonicotinamide hydrochloride] | 0.0082 µM | 0.005 µM |  |  |
|  | Cc1cc(C(=O)Nc2ccc([C@H]3CNCCO3)cc2)cc(Cl)n1 [Example 286, (S)-2-Chloro-6-methyl-N-(4-(morpholin-2-yl)phenyl)isonicotinamide hydrochloride] | 0.0222 µM | 0.0044 µM |  |  |

| SMILES | Ki (mouse TAAR1; [2]) | Ki (mouse TAAR1) | Ki (rat TAAR1; [1]) | Ki (rat TAAR1) | other results |
| --- | --- | --- | --- | --- | --- |
| O=C(Nc1ccc([C@@H]2CCCNC2)cc1)c1cnc(Br)cn1 [Example 251, (S)-5-Bromo-N-(4-(piperidin-3-yl)phenyl)pyrazine-2-carboxamide 2,2,2-trifluoroacetate] | 0.48 µM |  |  | 0.0054 µM |  |
| CSc1cccc(C(=O)Nc2ccc([C@@H]3CCCNC3)cc2)c1 [Example 259, (S)-3-(Methylthio)-N-(4-(piperidin-3-yl)phenyl)benzamide] | 0.044 µM |  |  | 0.0009 µM |  |
| O=C(Nc1ccc([C@H]2CCCNC2)cc1)c1cccc(C(F)(F)F)c1 [Example 261, (R)—N-(4-(Piperidin-3-yl)phenyl)-3-(trifluoromethyl)benzamide hydrochloride] | 0.0027 µM |  |  | 0.0015 µM |  |
| CCOc1ccc(C(=O)Nc2ccc([C@@H]3CNCCO3)cc2)cc1 [Example 275, (R)-4-Ethoxy-N-(4-(morpholin-2-yl)phenyl)benzamide hydrochloride] | 0.0082 µM |  |  | 0.0036 µM |  |
| CCOc1ccc(C(=O)Nc2ccc([C@H]3CNCCO3)cc2)cc1 [Example 276, (S)-4-Ethoxy-N-(4-(morpholin-2-yl)phenyl)benzamide hydrochloride] | 0.0558 µM |  |  | 0.0008 µM |  |
| O=C(Nc1ccc([C@@H]2CNCCO2)cc1)c1ccc(C(F)(F)F)nc1 [Example 283, (R)—N-(4-(Morpholin-2-yl)phenyl)-6-(trifluoromethyl)nicotinamide hydrochloride] | 0.006 µM |  |  | 0.0059 µM |  |
| CCCc1ccc(C(=O)Nc2ccc([C@@H]3CCCNC3)cc2)cn1 [Example 289, (S)—N-(4-(Piperidin-3-yl)phenyl)-6-propylnicotinamide] | 0.143 µM |  |  | 0.0027 µM |  |
